Measurements from patent publication US12226409B2, “Treatment of hepatocellular carcinoma” (Eisai R&D Management Co., Ltd., priority 2017, dated 2025).

Experiments:
[1] = test system: patients with unresectable HCC; test: Quality of life, EORTC QLQ-C30 and QLQ-HCC18 questionnaires; assay type: in vivo, human; settings: role functioning, pain, diarrhea (QLQ-C30); nutrition, body image (QLQ-HCC18)
Experimental: (§1) The primary endpoint was overall survival.
(§2) Tumors were evaluated in accordance with mRECIST (Lencioni R., Semin Liver Dis., 30(1):52-60, 2010); RECIST 1.1 was applied for nonhepatic lesions (Eisenhauer, Eur J Cancer, 45(2):228-47, 2009). The liver was examined with computed tomography or magnetic resonance imaging was performed using a triphasic scanning technique. Assessments were performed every 8 weeks until disease progression. Quality of life questionnaires were administered at baseline, on day 1 of each subsequent treatment cycle, and at the off-treatment visit.

[2] = test system: lenvatinib-treated subjects; test: Clinical studies with lenvatinib, posterior reversible encephalopathy syndrome; settings: human, in vivo
Description: Mild to severe hypertension also could be present. A magnetic resonance imaging (MRI) was necessary to confirm the diagnosis of PRES. In subjects with signs or symptoms of PRES, appropriate measures were to be taken to control blood pressure, and instructions in Table 6 were followed.

CYP2C19 = CYP2C19 (Homo sapiens, UniProt P33261); test: In vitro CYP inhibition; assay type: in vitro ADME
CYP3A = test: In vitro CYP inhibition; assay type: in vitro ADME
[3] = Phase 1 study of lenvatinib in HCC, plasma concentration; assay type: in vivo, human; settings: HCC patients 12 mg per day vs solid tumor patients 25 mg per day
unresectable HCC = test: Open-label phase 3 noninferiority study, efficacy (tumor assessment by mRECIST); assay type: in vivo, human
Description: as §1
Patients who were eligible for enrollment had unresectable HCC with diagnosis confirmed histologically or cytologically or with diagnosis confirmed clinically in accordance with the American Association for the Study of Liver Diseases criteria. Included patients also had ≥1 measureable target lesion, based on modified Response Evaluation Criteria in Solid Tumors (Lencioni 2010); Barcelona Clinic Liver Cancer stage B or C categorization (Bruix Hepatology 2011); Child-Pugh class A; and Eastern Cooperative Oncology Group performance status ≤1. All eligible patients had controlled blood pressure (≤150/90 mm Hg), and adequate organ function. Patients with ≥50% liver occupation, clear bile duct invasion, or portal vein invasion at the main portal vein were excluded. Patients also were excluded if that had received prior systemic therapy for HCC.
as §2
The primary endpoint of overall survival was first tested for noninferiority then for superiority. The required number of events for the primary analysis was 700 deaths, based on the fill analysis set. The HR and its 95% confidence interval (CI) were estimated from a Cox proportional hazard model with treatment group as a factor and with the analysis stratified according to the same factors applied for randomization.
A fixed-sequence procedure was followed to control the overall type I error rate of analyses for both the primary and secondary efficacy endpoints at α=0.05 (2-sided). After noninferiority was declared, secondary efficacy endpoints were tested. Differences in progression-free survival and time to progression were evaluated using a stratified log-rank test with randomization stratification factors, with the associated HR and its 95% CI. A difference in the objective response rate was evaluated using the Cochran-Mantel-Haenszel chi-square test with randomized stratification factors as strata, with associated odds ratio and its 95% CI. To assess futility, 2 interim analyses (at 30% and 70% of the target number of events) were performed using Bayesian predictive probability in a noninferiority design by the independent data monitoring committee.

[4] = test system: patients with unresectable HCC; settings: human, in vivo
Description: Randomization was stratified according to region (Asia-Pacific or Western regions), macroscopic portal vein invasion and/or extrahepatic spread (yes or no), Eastern Cooperative Oncology Group performance status (0 or 1), and body weight (<60 kg or ≥60 kg).
Safety assessments included recording of vital signs, hematologic and biochemical laboratory testing, urinalysis, and electrocardiography.

[5] = test system: unresectable hepatocellular carcinoma (HCC); test: REFLECT study, efficacy per independent review; assay type: in vivo, human
Experimental: The efficacy of LENVIMA was evaluated in a randomized, open-label, multicenter, international study (REFLECT; […]) conducted in patients with previously untreated unresectable hepatocellular carcinoma (HCC).

CYP3A4 = target: T1, CYP3A4 (Homo sapiens, UniProt P08684); test: Drug interaction with midazolam (CYP3A4 substrate); settings: projected
T1 construct: from tissue; host or cells: human subjects (in vivo)

CYP1A2 = target: T2, CYP1A2 (Homo sapiens, UniProt P05177); test: In vitro CYP inhibition; assay type: in vitro ADME
T2 sequence (P05177 1-516): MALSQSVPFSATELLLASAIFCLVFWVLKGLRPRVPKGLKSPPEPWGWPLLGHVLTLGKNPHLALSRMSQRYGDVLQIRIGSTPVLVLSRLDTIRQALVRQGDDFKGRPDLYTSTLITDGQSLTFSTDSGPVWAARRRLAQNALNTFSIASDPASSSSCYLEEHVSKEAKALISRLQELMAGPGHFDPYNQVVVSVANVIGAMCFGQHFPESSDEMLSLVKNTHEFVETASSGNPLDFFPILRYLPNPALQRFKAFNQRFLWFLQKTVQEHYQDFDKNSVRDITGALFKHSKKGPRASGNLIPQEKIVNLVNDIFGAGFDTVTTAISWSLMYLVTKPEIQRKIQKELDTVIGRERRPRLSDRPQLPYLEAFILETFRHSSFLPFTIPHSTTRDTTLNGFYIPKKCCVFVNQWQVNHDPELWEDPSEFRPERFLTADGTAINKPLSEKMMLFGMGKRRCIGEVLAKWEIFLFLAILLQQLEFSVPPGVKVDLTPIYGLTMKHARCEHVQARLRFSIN

Chain of CYP2C19 (P33261 whole entry): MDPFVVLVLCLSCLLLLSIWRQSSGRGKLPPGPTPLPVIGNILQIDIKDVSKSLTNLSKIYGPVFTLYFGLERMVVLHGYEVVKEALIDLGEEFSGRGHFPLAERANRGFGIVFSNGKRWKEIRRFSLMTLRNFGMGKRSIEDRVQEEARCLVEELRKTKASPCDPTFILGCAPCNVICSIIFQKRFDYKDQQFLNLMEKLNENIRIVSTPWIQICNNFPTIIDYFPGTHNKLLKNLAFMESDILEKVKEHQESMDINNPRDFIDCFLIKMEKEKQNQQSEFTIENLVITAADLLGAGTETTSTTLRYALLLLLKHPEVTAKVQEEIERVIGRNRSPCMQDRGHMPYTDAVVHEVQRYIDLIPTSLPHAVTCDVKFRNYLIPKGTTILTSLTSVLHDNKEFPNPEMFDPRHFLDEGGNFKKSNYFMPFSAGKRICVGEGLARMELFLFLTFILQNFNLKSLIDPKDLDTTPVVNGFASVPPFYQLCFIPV
T1 sequence (P08684 whole entry): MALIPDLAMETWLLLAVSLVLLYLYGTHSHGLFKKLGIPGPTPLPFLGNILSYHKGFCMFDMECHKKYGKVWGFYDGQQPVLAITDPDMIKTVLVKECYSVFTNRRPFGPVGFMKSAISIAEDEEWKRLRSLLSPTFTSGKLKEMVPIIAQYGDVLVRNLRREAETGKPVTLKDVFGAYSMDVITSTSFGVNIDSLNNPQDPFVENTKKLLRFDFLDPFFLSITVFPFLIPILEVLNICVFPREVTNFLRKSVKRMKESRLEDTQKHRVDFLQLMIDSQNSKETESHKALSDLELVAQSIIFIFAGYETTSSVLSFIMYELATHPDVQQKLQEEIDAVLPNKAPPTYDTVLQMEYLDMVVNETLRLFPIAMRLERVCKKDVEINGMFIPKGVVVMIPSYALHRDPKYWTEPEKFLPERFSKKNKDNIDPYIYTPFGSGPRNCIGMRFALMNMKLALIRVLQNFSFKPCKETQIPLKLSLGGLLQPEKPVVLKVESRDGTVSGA

COc1cc2nccc(Oc3ccc(NC(=O)NC4CC4)c(Cl)c3)c2cc1C(N)=O [Lenvatinib, 4-(3-chloro-4(cyclopropylaminocarbonyl)aminophenoxy)-7-methoxy-6-quinolinecarboxamide]
time to clinically meaningful deterioration of quality of life [1]: clinically meaningful delay in deterioration | events of posterior reversible encephalopathy syndrome (PRES) [2]: less than 1% | inhibition of CYP2C19 (CYP2C19): inhibits | inhibition of CYP3A (CYP3A): inhibits | lenvatinib plasma concentration at 24 hours [3]: similar | Primary reason for discontinuation of treatment: Disease Progression (unresectable HCC; Full Analysis Set): 311 (65.1) n (%) | Durable stable disease lasting ≥23 wk (unresectable HCC; in vivo): 167 no. | Median overall survival (unresectable HCC; in vivo): 13.6 mo | Median progression-free survival (unresectable HCC; mRECIST): 7.4 mo | Median time to progression (unresectable HCC; mRECIST): 8.9 mo | treatment-related fatal cerebral hemorrhage [4]: 3 patients | treatment-related fatal hepatic failure [4]: 3 patients | treatment-related fatal respiratory failure [4]: 2 patients | Median OS ([5]; in vivo): 13.6 months | Median PFS ([5]; mRECIST, independent review): 7.3 months | Objective response rate ([5]; mRECIST, independent review): 41% | drug-drug interaction risk with midazolam (CYP3A4): no projected significant drug-drug interaction risk | inhibition of CYP1A2 (CYP1A2): inhibits
